How the values were obtained:
Assay in all cases: Post-emergence glasshouse spray test, visual percentage phytotoxicity after 13 days
Type in all cases: in vivo
[1] = test system: Ipomoea hederacea (IPOHE); details: for IPOHE percentage phytotoxicity: B1
Summary of the method: (§1)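 Visual damage score, 0–100 (100 = total damage), taken 13 days after spraying relative to untreated plants; 2–4 replicates in randomised blocks. Spray at 500 l/Ha on 8-day-old pot-grown plants, compound in IF50/acetone then 0.2% Genapol XO80. Mixture expected effect from Colby formula.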

[2] = test system: Echinochloa crus-galli (ECHCG)
Summary of the method: as §1

[3] = test system: Amaranthus retroflexus (AMARE); details: for AMARE percentage phytotoxicity: B1
Summary of the method: as §1

[4] = test system: Setaria faberi (SETFA); details: for SETFA percentage phytotoxicity: B1
Summary of the method: as §1

[5] = test system: Alopecurus myosuroides (ALOMY); details: for ALOMY percentage phytotoxicity: B1
Summary of the method: as §1

[6] = test system: Stellaria media (STEME); details: for STEME percentage phytotoxicity: B1
Summary of the method: as §1

[7] = test system: Abutilon threophrasti (ABUTH); details: for ABUTH percentage phytotoxicity: B1
Summary of the method: as §1

[8] = test system: Lolium perenne (LOLPE); details: for LOLPE percentage phytotoxicity: B1
Summary of the method: as §1

[9] = test system: Digitaria sanguinalis (DIGSA); details: for DIGSA percentage phytotoxicity: B1
Summary of the method: as §1

[10] = test system: Chenopodium album (CHEAL); details: for CHEAL percentage phytotoxicity: B1
Summary of the method: as §1

FC(F)c1cc(-c2c(Cl)cccc2Oc2ncc(Cl)cn2)on1 [A-I]
IPOHE percentage phytotoxicity ([1]; 0.625 g/ha post-emergence): 32%
IPOHE percentage phytotoxicity ([1]; 1.25 g/ha post-emergence): 50%
IPOHE percentage phytotoxicity ([1]; 2.5 g/ha post-emergence): 80%
IPOHE percentage phytotoxicity ([1]; 5 g/ha post-emergence): 79%
IPOHE percentage phytotoxicity ([1]; 10 g/ha post-emergence): 60%
Observed phytotoxicity IPOHE ([1]; B2.3.6, 0.625 g/ha post-emergence): 24%
Observed phytotoxicity IPOHE ([1]; B2.4.5, 10 g/ha post-emergence): 60%
Observed phytotoxicity IPOHE ([1]; B2.6.4, 10 g/ha post-emergence): 60%
Observed phytotoxicity ECHCG ([2]; B2.1.2, 0.625 g/ha post-emergence): 8%
Observed phytotoxicity ECHCG ([2]; B2.1.2, 5 g/ha post-emergence): 20%
Observed phytotoxicity ECHCG ([2]; B2.2.2, 0.625 g/ha post-emergence): 0%
Observed phytotoxicity ECHCG ([2]; B2.2.2, 1.25 g/ha post-emergence): 34%
Observed phytotoxicity ECHCG ([2]; B2.2.2, 5 g/ha post-emergence): 10%
Observed phytotoxicity ECHCG ([2]; B2.3.2, 0.625 g/ha post-emergence): 0%
Observed phytotoxicity ECHCG ([2]; B2.3.2, 1.25 g/ha post-emergence): 4%
Observed phytotoxicity ECHCG ([2]; B2.3.2, 5 g/ha post-emergence): 10%
AMARE percentage phytotoxicity ([3]; 0.625 g/ha post-emergence): 60%
AMARE percentage phytotoxicity ([3]; 1.25 g/ha post-emergence): 70%
AMARE percentage phytotoxicity ([3]; 2.5 g/ha post-emergence): 98%
AMARE percentage phytotoxicity ([3]; 5 g/ha post-emergence): 98%
AMARE percentage phytotoxicity ([3]; 10 g/ha post-emergence): 100%
Observed phytotoxicity AMARE ([3]; B2.1.5, 1.25 g/ha post-emergence): 55%
Observed phytotoxicity AMARE ([3]; B2.2.6, 0.625 g/ha post-emergence): 51%
Observed phytotoxicity AMARE ([3]; B2.2.6, 1.25 g/ha post-emergence): 76%
Observed phytotoxicity AMARE ([3]; B2.4.8, 1.25 g/ha post-emergence): 70%
SETFA percentage phytotoxicity ([4]; 0.625 g/ha post-emergence): 7%
SETFA percentage phytotoxicity ([4]; 1.25 g/ha post-emergence): 13%
SETFA percentage phytotoxicity ([4]; 2.5 g/ha post-emergence): 29%
SETFA percentage phytotoxicity ([4]; 5 g/ha post-emergence): 53%
SETFA percentage phytotoxicity ([4]; 10 g/ha post-emergence): 65%
Observed phytotoxicity SETFA ([4]; B2.1.3, 5 g/ha post-emergence): 40%
Observed phytotoxicity SETFA ([4]; B2.2.1, 1.25 g/ha post-emergence): 8%
Observed phytotoxicity SETFA ([4]; B2.2.1, 2.5 g/ha post-emergence): 14%
Observed phytotoxicity SETFA ([4]; B2.2.1, 5 g/ha post-emergence): 51%
Observed phytotoxicity SETFA ([4]; B2.3.1, 0.625 g/ha post-emergence): 3%
Observed phytotoxicity SETFA ([4]; B2.3.1, 1.25 g/ha post-emergence): 8%
Observed phytotoxicity SETFA ([4]; B2.3.1, 2.5 g/ha post-emergence): 14%
Observed phytotoxicity SETFA ([4]; B2.4.1, 2.5 g/ha post-emergence): 29%
Observed phytotoxicity SETFA ([4]; B2.6.1, 0.625 g/ha post-emergence): 7%
Observed phytotoxicity SETFA ([4]; B2.6.1, 2.5 g/ha post-emergence): 29%
ALOMY percentage phytotoxicity ([5]; 0.625 g/ha post-emergence): 5%
ALOMY percentage phytotoxicity ([5]; 1.25 g/ha post-emergence): 11%
ALOMY percentage phytotoxicity ([5]; 2.5 g/ha post-emergence): 10%
ALOMY percentage phytotoxicity ([5]; 5 g/ha post-emergence): 43%
ALOMY percentage phytotoxicity ([5]; 10 g/ha post-emergence): 41%
Observed phytotoxicity ALOMY ([5]; B2.2.5, 5 g/ha post-emergence): 14%
Observed phytotoxicity ALOMY ([5]; B2.3.5, 1.25 g/ha post-emergence): 1%
Observed phytotoxicity ALOMY ([5]; B2.4.4, 10 g/ha post-emergence): 41%
STEME percentage phytotoxicity ([6]; 0.625 g/ha post-emergence): 44%
STEME percentage phytotoxicity ([6]; 1.25 g/ha post-emergence): 60%
STEME percentage phytotoxicity ([6]; 2.5 g/ha post-emergence): 88%
STEME percentage phytotoxicity ([6]; 5 g/ha post-emergence): 99%
STEME percentage phytotoxicity ([6]; 10 g/ha post-emergence): 98%
Observed phytotoxicity STEME ([6]; B2.1.4, 1.25 g/ha post-emergence): 40%
Observed phytotoxicity STEME ([6]; B2.3.7, 0.625 g/ha post-emergence): 29%
Observed phytotoxicity STEME ([6]; B2.6.5, 0.625 g/ha post-emergence): 44%
ABUTH percentage phytotoxicity ([7]; 0.625 g/ha post-emergence): 15%
ABUTH percentage phytotoxicity ([7]; 1.25 g/ha post-emergence): 41%
ABUTH percentage phytotoxicity ([7]; 2.5 g/ha post-emergence): 49%
ABUTH percentage phytotoxicity ([7]; 5 g/ha post-emergence): 68%
ABUTH percentage phytotoxicity ([7]; 10 g/ha post-emergence): 68%
Observed phytotoxicity ABUTH ([7]; B2.1.7, 1.25 g/ha post-emergence): 8%
Observed phytotoxicity ABUTH ([7]; B2.1.7, 2.5 g/ha post-emergence): 25%
Observed phytotoxicity ABUTH ([7]; B2.4.6, 0.625 g/ha post-emergence): 15%
LOLPE percentage phytotoxicity ([8]; 0.625 g/ha post-emergence): 4%
LOLPE percentage phytotoxicity ([8]; 1.25 g/ha post-emergence): 5%
LOLPE percentage phytotoxicity ([8]; 2.5 g/ha post-emergence): 8%
LOLPE percentage phytotoxicity ([8]; 5 g/ha post-emergence): 43%
LOLPE percentage phytotoxicity ([8]; 10 g/ha post-emergence): 30%
Observed phytotoxicity LOLPE ([8]; B2.1.1, 0.625 g/ha post-emergence): 0%
Observed phytotoxicity LOLPE ([8]; B2.1.1, 1.25 g/ha post-emergence): 0%
Observed phytotoxicity LOLPE ([8]; B2.2.4, 1.25 g/ha post-emergence): 0%
Observed phytotoxicity LOLPE ([8]; B2.2.4, 2.5 g/ha post-emergence): 0%
Observed phytotoxicity LOLPE ([8]; B2.2.4, 5 g/ha post-emergence): 14%
Observed phytotoxicity LOLPE ([8]; B2.3.4, 1.25 g/ha post-emergence): 0%
Observed phytotoxicity LOLPE ([8]; B2.3.4, 2.5 g/ha post-emergence): 0%
Observed phytotoxicity LOLPE ([8]; B2.4.3, 10 g/ha post-emergence): 30%
Observed phytotoxicity LOLPE ([8]; B2.5.2, 5 g/ha post-emergence): 21%
Observed phytotoxicity LOLPE ([8]; B2.5.2, 10 g/ha post-emergence): 30%
Observed phytotoxicity LOLPE ([8]; B2.6.3, 10 g/ha post-emergence): 30%
DIGSA percentage phytotoxicity ([9]; 0.625 g/ha post-emergence): 6%
DIGSA percentage phytotoxicity ([9]; 1.25 g/ha post-emergence): 25%
DIGSA percentage phytotoxicity ([9]; 2.5 g/ha post-emergence): 34%
DIGSA percentage phytotoxicity ([9]; 5 g/ha post-emergence): 63%
DIGSA percentage phytotoxicity ([9]; 10 g/ha post-emergence): 78%
Observed phytotoxicity DIGSA ([9]; B2.2.3, 5 g/ha post-emergence): 48%
Observed phytotoxicity DIGSA ([9]; B2.3.3, 0.625 g/ha post-emergence): 3%
Observed phytotoxicity DIGSA ([9]; B2.3.3, 1.25 g/ha post-emergence): 9%
Observed phytotoxicity DIGSA ([9]; B2.4.2, 2.5 g/ha post-emergence): 34%
Observed phytotoxicity DIGSA ([9]; B2.4.2, 5 g/ha post-emergence): 63%
Observed phytotoxicity DIGSA ([9]; B2.4.2, 10 g/ha post-emergence): 78%
Observed phytotoxicity DIGSA ([9]; B2.5.1, 2.5 g/ha post-emergence): 34%
Observed phytotoxicity DIGSA ([9]; B2.6.2, 0.625 g/ha post-emergence): 6%
Observed phytotoxicity DIGSA ([9]; B2.6.2, 2.5 g/ha post-emergence): 34%
Observed phytotoxicity DIGSA ([9]; B2.6.2, 10 g/ha post-emergence): 78%
CHEAL percentage phytotoxicity ([10]; 0.625 g/ha post-emergence): 48%
CHEAL percentage phytotoxicity ([10]; 1.25 g/ha post-emergence): 53%
CHEAL percentage phytotoxicity ([10]; 2.5 g/ha post-emergence): 79%
CHEAL percentage phytotoxicity ([10]; 5 g/ha post-emergence): 76%
CHEAL percentage phytotoxicity ([10]; 10 g/ha post-emergence): 78%
Observed phytotoxicity CHEAL ([10]; B2.1.6, 1.25 g/ha post-emergence): 45%
Observed phytotoxicity CHEAL ([10]; B2.4.7, 1.25 g/ha post-emergence): 53%

— US20230389548A1, “MIXTURES OF PYRIMIDINES AS HERBICIDAL COMPOSITIONS” (SYNGENTA CROP PROTECTION AG, priority 2020, published 2023)
